Structures are written as SMILES.

The first assay concerns endogenous cellular STAT1 (phosphorylated at Tyr701) in NCI-H1373 cells. In words: Phospho-STAT1 (Tyr701) LANCE Ultra TR-FRET Detection Assay. Format: cell-based. The conditions noted are these: Homo sapiens, 48 hours, phospho-STAT1 (Tyr701) induction, read-out: NH1373 pSTAT1 EC50.
Regarding `O=c1[nH]ncc(N2CCCN2CCCn2ccc3cc(-c4ncc(C(F)(F)F)cn4)c(F)cc3c2=O)c1C(F)(F)F` [Example 154, 7-fluoro-2-[3-[2-[6-oxo-5-(trifluoromethyl)-1H-pyridazin-4-yl]pyrazolidin-1-yl]propyl]-6-[5-(trifluoromethyl)pyrimidin-2-yl]isoquinolin-1-one], the EC50 is 115 nM.

Still in this assay, the particulars now being: Homo sapiens, NCI-H1373, 48 h, phospho-STAT1 (Tyr701) induction, read-out: NH1373 pSTAT1 EC50.
As for `O=c1[nH]ncc(N[C@H]2CCC[C@@H](Cn3cnc4cc(-c5ncc(Cl)cn5)c(F)cc4c3=O)C2)c1C(F)(F)F` [Example 247, 7-(5-chloropyrimidin-2-yl)-6-fluoro-3-(((1R,3S)-3-((6-oxo-5-(trifluoromethyl)-1,6-dihydropyridazin-4-yl)amino)cyclohexyl)methyl)quinazolin-4(3H)-one], the EC50 came out at 8.8 nM. Regarding `Nc1nc(-c2cc3ccn(C[C@@H]4CCC[C@H](Nc5cn[nH]c(=O)c5C(F)(F)F)C4)c(=O)c3c(F)c2F)ccc1C(F)(F)F` [Example 252, 6-(6-amino-5-(trifluoromethyl)pyridin-2-yl)-7,8-difluoro-2-(((1R,3S)-3-((6-oxo-5-(trifluoromethyl)-1,6-dihydropyridazin-4-yl)amino)cyclohexyl)methyl)isoquinolin-1(2H)-one], the 50% effective concentration (EC50) worked out at 16.2 nM.

Regarding `CC[C@@H](CCCn1cnc2cc(-c3ccc(C(F)F)cn3)c(F)cc2c1=O)Nc1cn[nH]c(=O)c1C(F)(F)F` [Example 338, (S)-7-(5-(difluoromethyl)pyridin-2-yl)-6-fluoro-3-(4-((6-oxo-5-(trifluoromethyl)-1,6-dihydropyridazin-4-yl)amino)hexyl)quinazolin-4(3H)-one], the EC50 was 218 nM.

With `Nc1nc(-c2cc3ccn(CCC[C@@H](Nc4cn[nH]c(=O)c4C(F)(F)F)C4CC4)c(=O)c3cc2F)ncc1C(F)(F)F` [Example 144, 6-[4-amino-5-(trifluoromethyl)pyrimidin-2-yl]-2-[(4R)-4-cyclopropyl-4-[[6-oxo-5-(trifluoromethyl)-1H-pyridazin-4-yl]amino]butyl]-7-fluoro-isoquinolin-1-one], the EC50 was determined as 3.55 nM. Regarding `CC[C@@H](CCCn1cnc2cc(-c3ncc(C(F)(F)F)c(N)n3)c(F)cc2c1=O)Nc1cn[nH]c(=O)c1C(F)(F)F` [Example 321, (S)-7-(4-amino-5-(trifluoromethyl)pyrimidin-2-yl)-6-fluoro-3-(4-((6-oxo-5-(trifluoromethyl)-1,6-dihydropyridazin-4-yl)amino)hexyl)quinazolin-4(3H)-one], the EC50 came to 4.11 nM. On the same count and under the same terms, for `Cc1cnc(-c2cc3ccn(CCC[C@H](C)Nc4cn[nH]c(=O)c4C(F)(F)F)c(=O)c3c(F)c2F)nc1N` [Example 77, (S)-6-(4-amino-5-methylpyrimidin-2-yl)-7,8-difluoro-2-(4-((6-oxo-5-(trifluoromethyl)-1,6-dihydropyridazin-4-yl)amino)pentyl)isoquinolin-1(2H)-one] the value was 13.5 nM; for `O=c1[nH]ncc(N[C@H](CCCn2cnc3cc(-c4cnc(C(F)F)cn4)c(F)cc3c2=O)COC(F)F)c1C(F)(F)F` [Example 372, (R)-3-(5-(difluoromethoxy)-4-((6-oxo-5-(trifluoromethyl)-1,6-dihydropyridazin-4-yl)amino)pentyl)-7-(5-(difluoromethyl)pyrazin-2-yl)-6-fluoroquinazolin-4(3H)-one], 7.13 nM. As to `C[C@@H](CCCn1cnc2cc(-c3ncc(C(F)(F)F)c(N4CCC4)n3)c(F)cc2c1=O)Nc1cn[nH]c(=O)c1C(F)(F)F` [Example 189, (S)-7-(4-(azetidin-1-yl)-5-(trifluoromethyl)pyrimidin-2-yl)-6-fluoro-3-(4-((6-oxo-5-(trifluoromethyl)-1,6-dihydropyridazin-4-yl)amino)pentyl)quinazolin-4(3H)-one], the EC50 turned out to be 14.7 nM. In the case of `C[C@@H](Nc1cn[nH]c(=O)c1C(F)(F)F)/C(F)=C/Cn1ccc2cc(-c3ncc(C(F)(F)F)cn3)c(F)c(F)c2c1=O` [Example 131, (R,Z)-7,8-difluoro-2-(3-fluoro-4-((6-oxo-5-(trifluoromethyl)-1,6-dihydropyridazin-4-yl)amino)pent-2-en-1-yl)-6-(5-(trifluoromethyl)pyrimidin-2-yl)isoquinolin-1(2H)-one], the EC50 stood at 158 nM. With `CC[C@@H](CCCn1ccc2cc(-c3ncc(C(F)F)c(N)n3)c(F)c(F)c2c1=O)Nc1cn[nH]c(=O)c1C(F)(F)F` [Example 356, (S)-6-(4-amino-5-(difluoromethyl)pyrimidin-2-yl)-7,8-difluoro-2-(4-((6-oxo-5-(trifluoromethyl)-1,6-dihydropyridazin-4-yl)amino)hexyl)isoquinolin-1(2H)-one], the EC50 amounted to 4.9 nM. Regarding `C[C@@H](CCCn1ccc2cc(-c3ncnc(N)n3)c(F)cc2c1=O)Nc1cn[nH]c(=O)c1C(F)(F)F` [Example 365, (S)-6-(4-amino-1,3,5-triazin-2-yl)-7-fluoro-2-(4-((6-oxo-5-(trifluoromethyl)-1,6-dihydropyridazin-4-yl)amino)pentyl)isoquinolin-1(2H)-one], the EC50 came to 55.8 nM.

`O=c1[nH]ncc(Nc2cccc(Cn3ccc4cc(-c5ncc(C(F)(F)F)cn5)c(F)cc4c3=O)c2)c1C(F)(F)F` [Example 91, 7-fluoro-2-[[3-[[6-oxo-5-(trifluoromethyl)-1H-pyridazin-4-yl]amino]phenyl]methyl]-6-[5-(trifluoromethyl)pyrimidin-2-yl]isoquinolin-1-one]: the EC50 is 290 nM. As for `Nc1nc(-c2cc3ccn(C[C@@H]4CCC[C@H](Nc5cn[nH]c(=O)c5C(F)(F)F)C4)c(=O)c3c(F)c2F)ncc1C(F)F` [Example 239], the EC50 came to 5.37 nM. As for `O=c1[nH]ncc(N[C@H](CCCn2ccc3cc(-c4ncc(C(F)(F)F)cn4)c(F)cc3c2=O)c2nnc(C3CC3)o2)c1C(F)(F)F` [Example 476, 2-[(4R)-4-(5-cyclopropyl-1,3,4-oxadiazol-2-yl)-4-[[6-oxo-5-(trifluoromethyl)-1H-pyridazin-4-yl]amino]butyl]-7-fluoro-6-[5-(trifluoromethyl)pyrimidin-2-yl]isoquinolin-1-one], the EC50 is 20.3 nM. Turning to `O=c1[nH]ncc(N[C@H]2CCC[C@@H](Cn3ccc4cc(-c5nccc(C(F)(F)F)n5)c(F)cc4c3=O)C2)c1C(F)(F)F` [Example 272, 7-fluoro-2-(((1R,3S)-3-((6-oxo-5-(trifluoromethyl)-1,6-dihydropyridazin-4-yl)amino)cyclohexyl)methyl)-6-(4-(trifluoromethyl)pyrimidin-2-yl)isoquinolin-1(2H)-one], the EC50 turned out to be 10000 nM.

As to `Nc1nc(-c2cc3ncn(CC[C@H]4CCC[C@@H]4Nc4cn[nH]c(=O)c4C(F)(F)F)c(=O)c3cc2F)cnc1C(F)(F)F` [Example 465, 7-(6-amino-5-(trifluoromethyl)pyrazin-2-yl)-6-fluoro-3-(2-((1R,2S)-2-((6-oxo-5-(trifluoromethyl)-1,6-dihydropyridazin-4-yl)amino)cyclopentyl)ethyl)quinazolin-4(3H)-one], the EC50 amounted to 18 nM. As for `Nc1nc(-c2cc3ccn(C[C@@H]4CCC[C@H](Nc5cn[nH]c(=O)c5C(F)(F)F)C4)c(=O)c3cc2F)cnc1C(F)F` [Example 264, 6-(6-amino-5-(difluoromethyl)pyrazin-2-yl)-7-fluoro-2-(((1R,3S)-3-((6-oxo-5-(trifluoromethyl)-1,6-dihydropyridazin-4-yl)amino)cyclohexyl)methyl)isoquinolin-1(2H)-one], the EC50 came to 76.1 nM.

With `Nc1nc(-c2cc3ccn(C[C@@H]4COC[C@H](Nc5cn[nH]c(=O)c5C(F)(F)F)C4)c(=O)c3cc2F)ncc1C(F)(F)F` [Example 230, 6-(4-amino-5-(trifluoromethyl)pyrimidin-2-yl)-7-fluoro-2-(((3R,5R)-5-((6-oxo-5-(trifluoromethyl)-1,6-dihydropyridazin-4-yl)amino)tetrahydro-2H-pyran-3-yl)methyl)isoquinolin-1(2H)-one], the EC50 turned out to be 115 nM. On the same count and under the same terms, in the case of `C[C@@H](CCCn1ccc2cc(-c3cnc(C(F)(F)F)c(N)n3)c(F)cc2c1=O)Nc1cn[nH]c(=O)c1C(F)(F)F` [Example 316, (S)-6-(6-amino-5-(trifluoromethyl)pyrazin-2-yl)-7-fluoro-2-(4-((6-oxo-5-(trifluoromethyl)-1,6-dihydropyridazin-4-yl)amino)pentyl)isoquinolin-1(2H)-one] it was 15.5 nM; in that of `C[C@@H](CCCn1ccc2cc(-c3ccc(Cl)c(N)n3)c(F)cc2c1=O)Nc1cn[nH]c(=O)c1C(F)(F)F` [Example 293, (S)-6-(6-amino-5-chloropyridin-2-yl)-7-fluoro-2-(4-((6-oxo-5-(trifluoromethyl)-1,6-dihydropyridazin-4-yl)amino)pentyl)isoquinolin-1(2H)-one], 5.28 nM; in that of `Nc1nc(-c2cc3ccn(CCC[C@H](COC(F)F)Nc4cn[nH]c(=O)c4C(F)(F)F)c(=O)c3c(F)c2F)cnc1C(F)(F)F` [Example 418, (R)-6-(6-amino-5-(trifluoromethyl)pyrazin-2-yl)-2-(5-(difluoromethoxy)-4-((6-oxo-5-(trifluoromethyl)-1,6-dihydropyridazin-4-yl)amino)pentyl)-7,8-difluoroisoquinolin-1(2H)-one], 4.58 nM.

`COc1cnc(-c2cc3ccn(CCC[C@H](C)Nc4cn[nH]c(=O)c4C(F)(F)F)c(=O)c3cc2F)nc1N1CC(O)C1` [Example 207]: the EC50 was 157 nM.

Turning to `C[C@@H](CCCn1ccc2cc(-c3ccc(F)c(C(F)F)n3)c(F)cc2c1=O)Nc1cn[nH]c(=O)c1C(F)(F)F` [Example 330, (S)-6-(6-(difluoromethyl)-5-fluoropyridin-2-yl)-7-fluoro-2-(4-((6-oxo-5-(trifluoromethyl)-1,6-dihydropyridazin-4-yl)amino)pentyl)isoquinolin-1(2H)-one], the EC50 came to 1210 nM. `C[C@@H](CCCn1ccc2cc(-c3ncc4cc(F)ccc4n3)c(F)cc2c1=O)Nc1cn[nH]c(=O)c1C(F)(F)F` [Example 322, (S)-7-fluoro-6-(6-fluoroquinazolin-2-yl)-2-(4-((6-oxo-5-(trifluoromethyl)-1,6-dihydropyridazin-4-yl)amino)pentyl)isoquinolin-1(2H)-one]: the EC50 amounted to 5.64 nM.

These data come from patent US12459922B2 (Gilead Sciences, Inc., priority 2022, dated 2025).
